Measured values published in ChEMBL document CHEMBL1914353, “Utilization of halogen bond in lead optimization: a case study of rational design of potent phosphodiesterase type 5 (PDE5) inhibitors” (J Med Chem, 2011).

Assay: Inhibition of rabbit platelet PDE5 using [3H]cGMP as substrate after 30 mins by scintillation proximity assay
Design: species or system Oryctolagus cuniculus

Row | IC50 [nM] | Compound
1 | 7.2 | CCCOc1ccc(S(=O)(=O)N2CCN(C)CC2)cc1-c1nc(CC)c(I)c(=O)[nH]1
2 | 3.3 | CCCc1nn(C)c2c(=O)[nH]c(-c3cc(S(=O)(=O)N4CCN(C)CC4)ccc3OCC)nc12
3 | 51.8 | CCCOc1ccc(S(=O)(=O)N2CCN(C)CC2)cc1-c1nc(CC)cc(=O)[nH]1
